According to ChEMBL document CHEMBL5537158, “Polymyxins with Potent Antibacterial Activity against Colistin-Resistant Pathogens: Fine-Tuning Hydrophobicity with Unnatural Amino Acids” (J Med Chem, 2024):
≈ marks a conversion by molar mass, not a printed value. Positions of bridges follow the written chain, without caps; N, C: chain ends. Non-standard residues stand in square brackets, D forms with d. Residues, ends and D or L forms follow the SMILES beside them. *: point of attachment. dPhe(4-CF3) = N[C@H](Cc1ccc(C(F)(F)F)cc1)C(=O)O; dPhe(F5) = N[C@H](Cc1c(F)c(F)c(F)c(F)c1F)C(=O)O; Benzoyl(4-Ph) = O=C(c1ccc(-c2ccccc2)cc1)*; dPhe(4-Cl) = N[C@H](Cc1ccc(Cl)cc1)C(=O)O; dPhe(3-F) = N[C@H](Cc1cccc(F)c1)C(=O)O; dPhe(4-F) = N[C@H](Cc1ccc(F)cc1)C(=O)O; dPhe(2-F) = N[C@H](Cc1ccccc1F)C(=O)O; Octanoyl = CCCCCCCC(=O)*; Dab = NCC[C@H](N)C(=O)O

How the values were obtained:
Escherichia coli [1] = assay: Antibacterial activity against Escherichia coli ATCC 25922 assessed as bacterial growth inhibition incubated for 20 hrs by broth microdilution method; assay type: functional
Acinetobacter baumannii [2] = assay: Antimicrobial activity against Acinetobacter baumannii ATCC 19606 assessed as bacterial growth inhibition incubated for 20 hrs by broth microdilution method; assay type: functional
Acinetobacter baumannii [3] = assay: Antimicrobial activity against colistin resistant Acinetobacter baumannii ATCC 3658/17 assessed as bacterial growth inhibition incubated for 20 hrs by broth microdilution method; assay type: functional
Pseudomonas aeruginosa [4] = assay: Antimicrobial activity against Pseudomonas aeruginosa PAO1 assessed as bacterial growth inhibition incubated for 20 hrs by broth microdilution method; assay type: functional
[5] = Hemolytic activity in human RBC at 400 ug/ml after 1 hr; assay type: toxicity, cell-based, Erythrocyte; settings: red blood cells (erythrocytes), at 400 µg/mL, read-out: Activity
Escherichia coli [6] = assay: Antimicrobial activity against […] Escherichia coli harboring mcr-1 assessed as bacterial growth inhibition incubated for 20 hrs by broth microdilution method; assay type: functional
Pseudomonas aeruginosa [7] = assay: Antimicrobial activity against colistin resistant Pseudomonas aeruginosa 7197/19 assessed as bacterial growth inhibition incubated for 20 hrs by broth microdilution method; assay type: functional

| SMILES | MIC (Escherichia coli [1]) [µg/mL] | MIC (Acinetobacter baumannii [2]) [µg/mL] | MIC (Acinetobacter baumannii [3]) [µg/mL] | hemolysis at 1 h, 400 ug/ml [5] [%] | other results |
| --- | --- | --- | --- | --- | --- |
| CCCCCCCC(=O)N[C@@H](CCN)C(=O)N[C@H](C(=O)N[C@@H](CCN)C(=O)N[C@H]1CCNC(=O)[C@H]([C@@H](C)O)NC(=O)[C@H](CCN)NC(=O)[C@H](CCN)NC(=O)[C@H](CC(C)C)NC(=O)[C@@H](Cc2ccccc2F)NC(=O)[C@H](CCN)NC1=O)[C@@H](C)O (Octanoyl-[Dab]T[Dab][Dab][Dab][dPhe(2-F)]L[Dab][Dab]T; lactam 4-C) | 0.123 (≈ 0.102 µM) | 0.06 (≈ 0.0497 µM) | 0.5 (≈ 0.414 µM) |  |  |
| CCCCCCCC(=O)N[C@@H](CCN)C(=O)N[C@H](C(=O)N[C@@H](CCN)C(=O)N[C@H]1CCNC(=O)[C@H]([C@@H](C)O)NC(=O)[C@H](CCN)NC(=O)[C@H](CCN)NC(=O)[C@H](CC(C)C)NC(=O)[C@@H](Cc2cccc(F)c2)NC(=O)[C@H](CCN)NC1=O)[C@@H](C)O (Octanoyl-[Dab]T[Dab][Dab][Dab][dPhe(3-F)]L[Dab][Dab]T; lactam 4-C) |  | 0.25 (≈ 0.207 µM) | 4 (≈ 3.31 µM) |  | MIC (Pseudomonas aeruginosa [4]): 0.25 µg/mL (≈ 0.207 µM) |
| CCCCCCCC(=O)N[C@@H](CCN)C(=O)N[C@H](C(=O)N[C@@H](CCN)C(=O)N[C@H]1CCNC(=O)[C@H]([C@@H](C)O)NC(=O)[C@H](CCN)NC(=O)[C@H](CCN)NC(=O)[C@H](CC(C)C)NC(=O)[C@@H](Cc2ccc(C(F)(F)F)cc2)NC(=O)[C@H](CCN)NC1=O)[C@@H](C)O (Octanoyl-[Dab]T[Dab][Dab][Dab][dPhe(4-CF3)]L[Dab][Dab]T; lactam 4-C) [listing 1 of 2 here] |  |  |  | < 10 |  |
| CCCCCCCC(=O)N[C@@H](CCN)C(=O)N[C@H](C(=O)N[C@@H](CCN)C(=O)N[C@H]1CCNC(=O)[C@H]([C@@H](C)O)NC(=O)[C@H](CCN)NC(=O)[C@H](CCN)NC(=O)[C@H](CC(C)C)NC(=O)[C@@H](Cc2ccc(C(F)(F)F)cc2)NC(=O)[C@H](CCN)NC1=O)[C@@H](C)O (Octanoyl-[Dab]T[Dab][Dab][Dab][dPhe(4-CF3)]L[Dab][Dab]T; lactam 4-C) [listing 2 of 2 here] | 0.25 (≈ 0.199 µM) | 0.25 (≈ 0.199 µM) | 0.5 (≈ 0.398 µM) |  | MIC (Escherichia coli [6]): 1 µg/mL (≈ 0.795 µM); MIC (Pseudomonas aeruginosa [7]): 0.25 µg/mL (≈ 0.199 µM) |
| CCCCCCCC(=O)N[C@@H](CCN)C(=O)N[C@H](C(=O)N[C@@H](CCN)C(=O)N[C@H]1CCNC(=O)[C@H]([C@@H](C)O)NC(=O)[C@H](CCN)NC(=O)[C@H](CCN)NC(=O)[C@H](CC(C)C)NC(=O)[C@@H](Cc2ccc(Cl)cc2)NC(=O)[C@H](CCN)NC1=O)[C@@H](C)O (Octanoyl-[Dab]T[Dab][Dab][Dab][dPhe(4-Cl)]L[Dab][Dab]T; lactam 4-C) |  |  |  | < 10 |  |
| CCCCCCCC(=O)N[C@@H](CCN)C(=O)N[C@H](C(=O)N[C@@H](CCN)C(=O)N[C@H]1CCNC(=O)[C@H]([C@@H](C)O)NC(=O)[C@H](CCN)NC(=O)[C@H](CCN)NC(=O)[C@H](CC(C)C)NC(=O)[C@@H](Cc2ccc(F)cc2)NC(=O)[C@H](CCN)NC1=O)[C@@H](C)O (Octanoyl-[Dab]T[Dab][Dab][Dab][dPhe(4-F)]L[Dab][Dab]T; lactam 4-C) [listing 1 of 2 here] |  |  |  | < 10 |  |
| CCCCCCCC(=O)N[C@@H](CCN)C(=O)N[C@H](C(=O)N[C@@H](CCN)C(=O)N[C@H]1CCNC(=O)[C@H]([C@@H](C)O)NC(=O)[C@H](CCN)NC(=O)[C@H](CCN)NC(=O)[C@H](CC(C)C)NC(=O)[C@@H](Cc2ccc(F)cc2)NC(=O)[C@H](CCN)NC1=O)[C@@H](C)O (Octanoyl-[Dab]T[Dab][Dab][Dab][dPhe(4-F)]L[Dab][Dab]T; lactam 4-C) [listing 2 of 2 here] | 0.03 (≈ 0.0248 µM) | 0.06 (≈ 0.0497 µM) | 0.25 (≈ 0.207 µM) |  | MIC (Escherichia coli [6]): 2 µg/mL (≈ 1.66 µM) |
| CCCCCCCC(=O)N[C@@H](CCN)C(=O)N[C@H](C(=O)N[C@@H](CCN)C(=O)N[C@H]1CCNC(=O)[C@H]([C@@H](C)O)NC(=O)[C@H](CCN)NC(=O)[C@H](CCN)NC(=O)[C@H](CC(C)C)NC(=O)[C@@H](Cc2c(F)c(F)c(F)c(F)c2F)NC(=O)[C@H](CCN)NC1=O)[C@@H](C)O (Octanoyl-[Dab]T[Dab][Dab][Dab][dPhe(F5)]L[Dab][Dab]T; lactam 4-C) [listing 1 of 2 here] |  |  |  | < 10 |  |
| CCCCCCCC(=O)N[C@@H](CCN)C(=O)N[C@H](C(=O)N[C@@H](CCN)C(=O)N[C@H]1CCNC(=O)[C@H]([C@@H](C)O)NC(=O)[C@H](CCN)NC(=O)[C@H](CCN)NC(=O)[C@H](CC(C)C)NC(=O)[C@@H](Cc2c(F)c(F)c(F)c(F)c2F)NC(=O)[C@H](CCN)NC1=O)[C@@H](C)O (Octanoyl-[Dab]T[Dab][Dab][Dab][dPhe(F5)]L[Dab][Dab]T; lactam 4-C) [listing 2 of 2 here] | < 0.125 | < 0.125 | 0.5 (≈ 0.391 µM) |  | MIC (Pseudomonas aeruginosa [4]): 0.25 µg/mL (≈ 0.195 µM) |
| CC[C@H](C)[C@@H]1NC(=O)[C@@H](CC(C)C)NC(=O)[C@H](CCN)NC(=O)[C@@H](NC(=O)[C@@H](CO)NC(=O)[C@@H](NC(=O)[C@H](CCN)NC(=O)c2ccc(-c3ccccc3)cc2)[C@@H](C)O)CCNC(=O)[C@H](CC(C)C)NC(=O)[C@H](CCN)NC(=O)[C@H](CCN)NC1=O ({Benzoyl(4-Ph)}-[Dab]T[dS][Dab][Dab][dL]I[Dab][Dab]L; lactam 4-C) |  |  |  | < 10 |  |
